Results taken from US12285394B2, “Ketogenic compounds, compositions, methods and use thereof” (9500-0535 QUEBEC INC., priority 2018, dated 2025).

Assay: pH of the compounds
Assay type: physicochemical

In the case of `CC(O)CC(=O)O` (stereo not drawn) [BHB, β-hydroxybutyric acid], the pKa is reported as ~4.4.
